The text below walks through data of patent publication US8338472B2, “Hexahydrocyclopentyl[F]indazole carboxamides and derivatives thereof as selective glucocorticoid receptor modulators” (Merck Sharp & Dohme Corp., priority 2008, dated 2012).

The target of assay [1] is T1, glucocorticoid receptor (GR) (Homo sapiens, UniProt P04150).
T1 sequence (P04150 1-777): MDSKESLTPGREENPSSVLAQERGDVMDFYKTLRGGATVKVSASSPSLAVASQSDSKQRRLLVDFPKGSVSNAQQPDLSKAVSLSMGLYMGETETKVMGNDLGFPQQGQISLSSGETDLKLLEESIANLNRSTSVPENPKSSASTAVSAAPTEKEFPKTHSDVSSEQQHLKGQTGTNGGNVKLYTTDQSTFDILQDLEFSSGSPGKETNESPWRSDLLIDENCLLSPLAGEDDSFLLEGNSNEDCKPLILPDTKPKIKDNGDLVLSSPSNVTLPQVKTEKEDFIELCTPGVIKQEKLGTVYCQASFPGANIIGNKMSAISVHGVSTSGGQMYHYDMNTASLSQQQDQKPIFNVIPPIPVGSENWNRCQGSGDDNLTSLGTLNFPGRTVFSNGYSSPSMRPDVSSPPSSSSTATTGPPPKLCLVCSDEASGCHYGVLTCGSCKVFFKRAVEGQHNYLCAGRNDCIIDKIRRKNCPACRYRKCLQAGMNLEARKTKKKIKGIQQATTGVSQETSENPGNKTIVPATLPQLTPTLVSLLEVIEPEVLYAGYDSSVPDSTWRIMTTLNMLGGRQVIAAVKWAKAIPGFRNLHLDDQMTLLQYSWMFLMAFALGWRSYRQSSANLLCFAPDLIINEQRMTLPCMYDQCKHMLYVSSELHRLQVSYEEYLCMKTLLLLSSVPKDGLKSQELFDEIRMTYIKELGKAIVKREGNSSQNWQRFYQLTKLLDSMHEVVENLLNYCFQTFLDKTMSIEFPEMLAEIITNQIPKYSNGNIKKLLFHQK
The assay can be described thus: Ligand binding assay (GR BIND), 3H-dexamethasone displacement in MDA-MB-453 cell lysate. Conditions: GR BIND Ki.

In a further assay the target is T2, human GR (Homo sapiens, UniProt P04150).
T2 construct: U937 cells contain an endogenous glucocorticoid receptor (GR); endogenous in cells; host or cells: U937 cells stably transfected with the TNF-alpha promoter/beta-lactamase reporter
T2 sequence (P04150 1-777): T1 sequence (P04150 1-777)
The assay can be described thus: Transrepression Assay (GITAR), TNFα-β-lactamase reporter gene in U937 cells. The format is cell-based. Conditions: for GITAR Greater than by GRAMMER % SEP: GITAR Emax minus GRAMMER Emax; for EC50: inflection point, U937 cells, read-out: Transrepression U937 Cells GITAR IP. From the text: Transrepression Assay (GITAR)
This assay assesses the ability of test compounds to control transcription from the TNFα-β-lactamase reporter gene in U937 cells, a human myelomonocytic leukemia cell line that naturally expresses the human GR. The assay measures compound dependent-repression of the TNFa promoter linked to a reporter gene.
The human U937 cells that had been stablely transfected with the TNF-α promoter driving β-lactamase are used for this assay. U937 cells contain an endogenous glucocorticoid receptor (GR). Cells are maintained in RPMI 1640 Growth medium (Gibco Cat#11875-093) containing 25 mM HEPES, 10% FBS, 2 mM L-Glutamine, 1 mM Sodium pyruvate, 25 μg/ml Gentamicin (Gibco Cat#15710-064), 1:1000 2-Mercaptoethanol (Gibco Cat#21985-023) and 0.8 mg/ml G418 (Gibco Cat#10131-027). The density of the cells in the flask needs to be about 1×10^6−3×10^6/ml at the time of harvest. Usually, the cells are split to 1.2˜1.4×10^5/ml (1:10) 3 days prior to the assay. 50,000 cells/well are plated in 96 well black-walled plates the day of assay. Test compounds are added 10 pt/well, and cells are incubated at 37° C. for 30-45 min. For assaying compounds, first dilute 1:10 in DMSO to make 1 mM, then further dilute 1:100 in medium to make 10× stock prior to adding to the cells. Add 50 ng/ml PMA (Sigma, cat# P8139) 10 μL/well to a final concentration 5 ng/ml, and 1 μg/ml LPS (Sigma, cat# L4130) 10 μL/well to a final concentration 100 ng/ml. Incubate cells at 37° C. overnight for ˜18 hr. PMA is stored frozen as 100 μg/ml stock in DMSO. Dilute 1:10 in DMSO for a working stock of 10 μg/ml and store at −20C. For assaying, dilute the […] working stock 1:200 in medium to make a 10× solution (50 ng/ml). Store frozen LPS at 1 mg/ml in PBS, dilute 1:1000 in medium to make 10× (1 μg/ml) for the assay. Add 6× loading buffer (CCF2−AM) 20 μL/well, and incubate at room temperature for 70-90 min. […] The activity repressed by 100 nM dexamethasone alone is set as 100% activity.
On the technique in general: In a reporter assay the amount or activity of a reporter protein is the signal.

A further assay addresses T3, Glucocorticoid Receptor (Homo sapiens, UniProt P04150).
T3 construct: These cells express large amount of the GR and are very responsive to GC treatment; endogenous in cells; host or cells: A549 cells transiently transfected with the MMTV-LUC reporter
T3 sequence (P04150 1-777): T1 sequence (P04150 1-777)
The assay can be described thus: Trans-Activation Modulation of Glucocorticoid Receptor (GRAMMER), MMTV-LUC reporter gene in A549 cells. The format is cell-based. Conditions: Table 1; for Emax: A549, A549 cells, Emax relative to 300 nM dexamethasone, read-out: Transactivation A549 Cells GRAMMER Emax; for EC50: inflection point, A549 cells, read-out: Transactivation A549 Cells GRAMMER IP. The source says:
Trans-Activation Modulation of Glucocorticoid Receptor (GRAMMER)
This assay assesses the ability of test compounds to control transcription from the MMTV-LUC reporter gene in lung adenocarcinoma A549 cells or MDA-MB-453 cells, a human breast cancer cell line that naturally expresses the human GR. The assay measures induction of a modified MMTV LTR/promoter linked to the LUC reporter gene.
The routine transient assay consists of plating 7,000-25,000 cells/well of a white, clear-bottom 96-well plate. Alternatively, 384-well plates can be used at a cell concentration of 10,000/well. The media that the cells are plated in is “exponential growth medium” which consists of phenol red-free RPMI1640 containing 10% FBS, 4 mM L-glutamine, 20 mM HEPES, 10 ug/mL human insulin, and 20 ug/mL gentamicin. Incubator conditions are 37° C. and 5% CO2. The transfection is done in batch mode. The cells are trypsinized and counted to the right cell number in the proper amount of fresh media. It is then gently mixed with the FuGene6/DNA mix and plated onto the 96 or 384-well plate, all the wells receive 100 uL or 40 uL, respectively, of medium+lipid/DNA complex then incubated 37° C. overnight. The transfection cocktail consists of serum-free OptiMEM, FuGene6 reagent and DNA. The manufacturer's (Roche Biochemical) protocol for cocktail setup is as follows: The lipid to DNA ratio is approximately 2.5:1 and the incubation time is 20 min at room temperature. Sixteen to 24 hours after transfection, the cells are treated with dexamethasone to a final concentration of 10 nM as well as the compound of interest, such that final DMSO (vehicle) concentration is equal to or less than 1%. Each plate also contains samples that are treated with 10 nM dexamethasone alone, which is used as the 100% activity control. The cells are exposed to the compounds for 24 hours. After 24 hours, the cells are lysed by a Promega cell culture lysis buffer for approximately 30 min and then the luciferase activity in the extracts is assayed in the 96-well format luminometer. In 384-well format, Steady-Glo (Promega) or Steady-Lite (PerkinElmer) can be used by adding an equal volume of reagent to the media present in each well. Activity induced by 10 nM dexamethasone alone is set at 100% activity. Antagonist activity is calculated by determining the decrease in dexamethasone-induced activity in response to compound treatment relative to samples that were treated with dexamethasone alone. […] This transactivation assay can be performed in an agonist and antagonist mode to identify these different activities.
Activity of test compounds is calculated as the Emax relative to the activity obtained with 300 nM dexamethasone. Activity of test compounds is calculated as the Emax relative to the activity obtained with 300 nM DEX. […] The action of compounds is also tested in an antagonist mode (Anti-GRAMMER) in which the cells are treated with medium containing an agonist such as 10 nM DEX and the ability to agents to inhibit the activation by an agonist is measured.

[2] abbreviates: U-937, U937 cells, activity repressed by 100 nM dexamethasone = 100%, Table 1, read-out: Transrepression U937 Cells GITAR Emax.
The mark [3] stands for this setting: U-937, text statement, 100 nM dexamethasone = 100%, read-out: maximal activity in the transrepression assay (GITAR).

Read-outs that look alike come from different tables or passages of the source.

In general, Ki refers to a dissociation constant, usually derived from enzyme kinetics or from competition with a known ligand. Lower therefore signals a stronger hold on the target. `C[C@]12Cc3cnn(-c4ccc(F)cc4)c3C=C1CC[C@@H]2C(=O)Nc1ccccc1` (single isomer, unassigned) [reference compound] registered an inhibition constant (Ki) in assay [1] (compounds in the art (WO03/086294)) of 2420 nM.

On to `CCCN(CCC)C(=O)[C@H]1CCC2=Cc3c(cnn3-c3ccc(F)cc3)C[C@@]21C` [Compound 1, (4αR,5S)-1-(4-Fluorophenyl)-4α-methyl-N,N-dipropyl-1,4,4α,5,6,7-hexahydrocyclopenta[f]indazole-5-carboxamide], for which the “GITAR Greater than by GRAMMER % SEP” value on human GR (Table 1) is 22.2%. In addition, the Emax at human GR (setting [2]) is 67.5%; at human GR (setting [3]) it was above 5%; at Glucocorticoid Receptor it was 45.3%. Further, the EC50 is 328 nM on human GR (Table 1) and 177 nM on Glucocorticoid Receptor. The Ki in assay [1] (Table 1) amounted to 1.7 nM.

Consider `C[C@]12Cc3cnn(-c4ccc(F)cc4)c3C=C1CC[C@@H]2C(=O)NC(Cc1ccccc1)c1ccccc1` (stereo partly drawn) [Compound 2, (4αR,5S)-N-(1,2-diphenylethyl)-1-(4-fluorophenyl)-4α-methyl-1,4,4α,5,6,7-hexahydrocyclopenta[f]indazole-5-carboxamide], for which the “GITAR Greater than by GRAMMER % SEP” value at human GR (Table 1) is 24.5%. The Emax at human GR (setting [2]) was 27.6%; on human GR (setting [3]), above 5%; on Glucocorticoid Receptor, 3.1%. Further, the EC50 at human GR (Table 1) came out at 3540 nM; on Glucocorticoid Receptor, 1120 nM. In assay [1] (Table 1), this compound showed a Ki of 12.7 nM.

As to `C[C@]12Cc3cnn(-c4ccc(F)cc4)c3C=C1CC[C@@H]2C(=O)NCc1ccc(Cl)cc1Cl` [Compound 3, (4αR,5S)-N-(2,4-dichlorobenzyl)-1-(4-fluorophenyl)-4α-methyl-1,4,4α,5,6,7-hexahydrocyclopenta[f]indazole-5-carboxamide], on human GR (Table 1), the “GITAR Greater than by GRAMMER % SEP” value was found to be 16.1%. The Emax on human GR (setting [2]) is 17%; on human GR (setting [3]), above 5%; on Glucocorticoid Receptor, 0.9%. In addition, the EC50 on human GR (Table 1) stood at 5200 nM; on Glucocorticoid Receptor, 5590 nM. Also, the inhibition constant Ki in assay [1] (Table 1) was determined as 16.2 nM.

`CCCN(CC)C(=O)[C@H]1CCC2=Cc3c(cnn3-c3ccc(F)cc3)C[C@@]21C` [Compound 4, (4αR,5S)-N-ethyl-1-(4-fluorophenyl)-4α-methyl-N-propyl-1,4,4α,5,6,7-hexahydrocyclopenta[f]indazole-5-carboxamide]: the “GITAR Greater than by GRAMMER % SEP” value on human GR (Table 1) is recorded as 2.3%. Further, the Emax was 21.5% at human GR (setting [2]), above 5% at human GR (setting [3]) and 19.2% at Glucocorticoid Receptor. Further, the EC50 on human GR (Table 1) was found to be 1000 nM; on Glucocorticoid Receptor, 909 nM. In assay [1] (Table 1), this compound came in with an inhibition constant Ki of 2.5 nM.

`CCCN(CC1CC1)C(=O)[C@H]1CCC2=Cc3c(cnn3-c3ccc(F)cc3)C[C@@]21C` [Compound 5, (4αR,5S)-N-(cyclopropylmethyl)-1-(4-fluorophenyl)-4α-methyl-N-propyl-1,4,4α,5,6,7-hexahydrocyclopenta[f]indazole-5-carboxamide]: the “GITAR Greater than by GRAMMER % SEP” value at human GR (Table 1) is listed as 24.2%. Besides, the results for the Emax at human GR (setting [2]), at human GR (setting [3]) and on Glucocorticoid Receptor were 59.6%, above 5% and 35.4%, respectively. Also, the EC50 amounted to 674 nM on human GR (Table 1) and 358 nM on Glucocorticoid Receptor. In assay [1] (Table 1), this compound gave a Ki of 0.9 nM.

With `C[C@]12Cc3cnn(-c4ccc(F)cc4)c3C=C1CC[C@@H]2C(=O)Nc1ccccc1` [Compound 6, (4αR,5S)-1-(4-fluorophenyl)-4α-methyl-N-phenyl-1,4,4α,5,6,7-hexahydrocyclopenta[f]indazole-5-carboxamide], the “GITAR Greater than by GRAMMER % SEP” value at human GR (Table 1) amounted to 11.5%. In addition, the Emax is 12.8% at human GR (setting [2]), above 5% at human GR (setting [3]) and 1.3% at Glucocorticoid Receptor. The EC50 on human GR (Table 1) is 0.9 nM; at Glucocorticoid Receptor, 133 nM. For the same compound, the Ki in assay [1] (Table 1) is 19.4 nM.

`C[C@]12Cc3cnn(-c4ccc(F)cc4)c3C=C1CC[C@@H]2C(=O)N1CCCCC1CCc1ccccc1` (stereo partly drawn) [Compound 18, (4αR,5S)-1-(4-fluorophenyl)-4α-methyl-5-{[2-(2-phenylethyl)piperidin-1-yl]carbonyl}-1,4,4α,5,6,7-hexahydrocyclopenta[f]indazole]: at human GR (Table 1), the “GITAR Greater than by GRAMMER % SEP” value was determined as 6.3%. The Emax on human GR (setting [2]) is 10.1%; at human GR (setting [3]) it was above 5%; at Glucocorticoid Receptor, 3.8%.
